Laboratory results published in ChEMBL document CHEMBL3045586, “Synthesis and antimicrobial activity of some new 4-triazolylmethoxy-2H-chromen-2-one derivatives” (2012).
In brackets after ≈: the same amount, converted by molar mass.

Legend:
Candida albicans [1] = assay: Fungicidal activity against Candida albicans MTCC 227 after 3 days; assay type: functional; conditions: MTCC 227, 72 h
Aspergillus niger [2] = assay: Fungicidal activity against Aspergillus niger MTCC 282 after 3 days; assay type: functional; conditions: MTCC 282, 72 h
Escherichia coli [3] = assay: Bactericidal against Escherichia coli MTCC 443 after 3 days; assay type: functional; conditions: MTCC 443, 72 h
Klebsiella pneumoniae [4] = assay: Bactericidal activity against Klebsiella pneumoniae MTCC 432 after 3 days; assay type: functional; conditions: MTCC 432, 72 h
Staphylococcus aureus [5] = assay: Bactericidal activity against Staphylococcus aureus MTCC 096 after 3 days; assay type: functional; conditions: MTCC 096, 72 h
Candida albicans [6] = assay type: functional, MTCC 227
Candida albicans [7] = assay: Antifungal activity against Candida albicans MTCC 227 after 28 to 30 hr by serial dilution method; assay type: functional
Aspergillus flavus [8] = assay: Antifungal activity against Aspergillus flavus MTCC 277 at […] to […] ug/ml after 28 to 30 hr by cup-plate method; assay type: functional
Aspergillus niger [9] = assay: Antifungal activity against Aspergillus niger MTCC 282 at […] to […] ug/ml after 28 to 30 hr by cup-plate method; assay type: functional
Klebsiella pneumoniae [10] = assay type: functional, MTCC 432
Aspergillus niger [11] = assay: Antifungal activity against Aspergillus niger MTCC 282 after 28 to 30 hr by serial dilution method; assay type: functional
Klebsiella pneumoniae [12] = assay: Antibacterial activity against Klebsiella pneumoniae MTCC 432 after 16 to 18 hr by serial dilution method; assay type: functional
Salmonella typhi [13] = assay: Antibacterial activity against Salmonella enterica subsp. enterica serovar Typhi MTCC 733 at […] to […] ug/ml after 16 to 18 hr by cup-plate method; assay type: functional
Salmonella typhi [14] = assay: Antibacterial activity against Salmonella enterica subsp. enterica serovar Typhi MTCC 733 after 16 to 18 hr by serial dilution method; assay type: functional
Pseudomonas aeruginosa [15] = assay type: functional, MTCC 424
Pseudomonas aeruginosa [16] = assay: Antibacterial activity against Pseudomonas aeruginosa MTCC 424 after 16 to 18 hr by serial dilution method; assay type: functional
Escherichia coli [17] = assay: Antibacterial activity against Escherichia coli MTCC 443 after 16 to 18 hr by serial dilution method; assay type: functional
Escherichia coli [18] = assay type: functional, MTCC 443
Aspergillus flavus [19] = assay: Antifungal activity against Aspergillus flavus MTCC 277 after 28 to 30 hr by serial dilution method; assay type: functional
Aspergillus fumigatus [20] = assay: Antifungal activity against Aspergillus fumigatus MTCC 343 at […] to […] ug/ml after 28 to 30 hr by cup-plate method; assay type: functional
Aspergillus fumigatus [21] = assay: Antifungal activity against Aspergillus fumigatus MTCC 343 after 28 to 30 hr by serial dilution method; assay type: functional
[22] = test system: Staphylococcus epidermidis; assay type: functional, MTCC 435
[23] = test system: Staphylococcus epidermidis; assay: Antibacterial activity against Staphylococcus epidermidis MTCC 435 after 16 to 18 hr by serial dilution method; assay type: functional
Bacillus subtilis [24] = assay: Antibacterial activity against Bacillus subtilis MTCC 441 after 16 to 18 hr by serial dilution method; assay type: functional
Bacillus subtilis [25] = assay type: functional, MTCC 441
Staphylococcus aureus [26] = assay type: functional, MTCC 096
Staphylococcus aureus [27] = assay: Antibacterial activity against Staphylococcus aureus MTCC 096 after 16 to 18 hr by serial dilution method; assay type: functional

| SMILES | MFC (Candida albicans [1]) [µg/mL] | MFC (Aspergillus niger [2]) [µg/mL] | MBC (Escherichia coli [3]) [µg/mL] | MBC (Klebsiella pneumoniae [4]) [µg/mL] | MBC (Staphylococcus aureus [5]) [µg/mL] | inhibition zone (IZ) (Candida albicans [6]) [mm] | MIC (Candida albicans [7]) [µg/mL] | inhibition zone (IZ) (Aspergillus flavus [8]) [mm] | inhibition zone (IZ) (Aspergillus niger [9]) [mm] | inhibition zone (IZ) (Klebsiella pneumoniae [10]) [mm] | MIC (Aspergillus niger [11]) [µg/mL] | MIC (Klebsiella pneumoniae [12]) [µg/mL] | inhibition zone (IZ) (Salmonella typhi [13]) [mm] | MIC (Salmonella typhi [14]) [µg/mL] | inhibition zone (IZ) (Pseudomonas aeruginosa [15]) [mm] | MIC (Pseudomonas aeruginosa [16]) [µg/mL] | MIC (Escherichia coli [17]) [µg/mL] | inhibition zone (IZ) (Escherichia coli [18]) [mm] | MIC (Aspergillus flavus [19]) [µg/mL] | inhibition zone (IZ) (Aspergillus fumigatus [20]) [mm] | also measured |
| --- | --- | --- | --- | --- | --- | --- | --- | --- | --- | --- | --- | --- | --- | --- | --- | --- | --- | --- | --- | --- | --- |
| O=c1cc(OCc2nnc(-c3ccc(F)cc3)[nH]2)c2ccccc2o1 | 12.5 (≈ 37.1 µM) | 25 (≈ 74.1 µM) | 25 (≈ 74.1 µM) | 25 (≈ 74.1 µM) | 12.5 (≈ 37.1 µM) | 14 | 6.25 (≈ 18.5 µM) | 11 | 13 | 13 | 12.5 (≈ 37.1 µM) | 6.25 (≈ 18.5 µM) | 11 | 12.5 (≈ 37.1 µM) | <10 | 25 (≈ 74.1 µM) | 12.5 (≈ 37.1 µM) | 11 | 12.5 (≈ 37.1 µM) | 12 | MIC (Aspergillus fumigatus [21]): 12.5 µg/mL (≈ 37.1 µM); inhibition zone (IZ) [22]: <10 mm; MIC [23]: 50 µg/mL (≈ 148 µM); MIC (Bacillus subtilis [24]): 50 µg/mL (≈ 148 µM); inhibition zone (IZ) (Bacillus subtilis [25]): <10 mm; inhibition zone (IZ) (Staphylococcus aureus [26]): 13 mm; MIC (Staphylococcus aureus [27]): 6.25 µg/mL (≈ 18.5 µM) |
| COc1ccc(-c2nnc(COc3cc(=O)oc4ccccc34)[nH]2)cc1OC | 25 (≈ 65.9 µM) | 25 (≈ 65.9 µM) | 25 (≈ 65.9 µM) | 25 (≈ 65.9 µM) | 12.5 (≈ 32.9 µM) | 15 | 6.25 (≈ 16.5 µM) | <10 | 13 | 11 | 6.25 (≈ 16.5 µM) | 12.5 (≈ 32.9 µM) | 13 | 6.25 (≈ 16.5 µM) | <10 | 25 (≈ 65.9 µM) | 25 (≈ 65.9 µM) | <10 | 25 (≈ 65.9 µM) | <10 | MIC (Aspergillus fumigatus [21]): 25 µg/mL (≈ 65.9 µM); inhibition zone (IZ) [22]: <10 mm; MIC [23]: 25 µg/mL (≈ 65.9 µM); MIC (Bacillus subtilis [24]): 25 µg/mL (≈ 65.9 µM); inhibition zone (IZ) (Bacillus subtilis [25]): <10 mm; inhibition zone (IZ) (Staphylococcus aureus [26]): 14 mm; MIC (Staphylococcus aureus [27]): 6.25 µg/mL (≈ 16.5 µM) |
